This note sets out measurements from article PMC5038265 (Antimicrobial Agents and Chemotherapy, 2016).

SMILES strings stand for the structures. Converted amounts (≈) assume the structure as drawn. Read-outs that look alike come from different tables or passages of the source.

The subject of assay [1] is multidrug-resistant M. tuberculosis isolates. Kind of assay: microbe, parasite or virus in culture. In kind it is cell-based. To be noted: for MIC: Mycobacterium tuberculosis, read-out: In vitro activity (MIC).
Assay [2] has as its system M. tuberculosis H37Rv. The class given is cell-based.

Regarding `CCOc1ccc(Cl)c2c1B(O)O[C@@H]2CN` [Compound 13], in assay [1], the “cross-resistance against multidrug-resistant isolates” value is reported as “did not show any cross-resistance” and the MIC was found to be 0.015 µg/mL (≈ 0.0621 µM). Also, in assay [1] (H37RV, M. tuberculosis H37Rv), the MIC worked out at 0.015 µg/mL (≈ 0.0621 µM). The “In vitro activity (MIC)” value in assay [1] (listed as Cmp13) is 0.030 µg/mL.
As to `CCOc1ccc(Br)c2c1B(O)O[C@@H]2CN` [Compound 14], in assay [1], the “cross-resistance against multidrug-resistant isolates” value was “did not show any cross-resistance” and the MIC is 0.03 µg/mL (≈ 0.105 µM). Further, in assay [1] (H37RV, M. tuberculosis H37Rv), the MIC came out at 0.03 µg/mL (≈ 0.105 µM). Besides, in assay [2], the “Resistance frequency at 4× MIC” value was 4.6 × 10^−6 and the “Resistance frequency at 10× MIC” value is given as 3.9 × 10^−6.
Turning to `NNC(=O)c1ccncc1` [Isoniazid, isoniazid, reference compound], the MIC in assay [1] (H37RV, M. tuberculosis H37Rv) was 0.06 µg/mL (≈ 0.438 µM); in assay [1] it was above 0.12 µg/mL. Besides, in assay [2], the “Resistance frequency at 10× MIC” value is reported as 1.8 × 10^−5.
Regarding `COc1c(N2C[C@@H]3CCCN[C@@H]3C2)c(F)cc2c(=O)c(C(=O)O)cn(C3CC3)c12` [Moxifloxacin, moxifloxacin, reference compound], in assay [2], the “Resistance frequency at 4× MIC” value is 1.7 × 10^−7 and the “Resistance frequency at 10× MIC” value is reported as 1.1 × 10^−8.
